We go through 42 compounds from patent US12637430B2, “Interleukin-17 (IL-17) inhibitors” (priority 2020, dated 2026).

The structures appear in SMILES notation.

For one experiment, the target named is T1, human IL-17A (Homo sapiens, UniProt Q16552).
T1 construct: purchased Sino Biological Inc. 12047-H07B
T1 sequence (Q16552 24-155): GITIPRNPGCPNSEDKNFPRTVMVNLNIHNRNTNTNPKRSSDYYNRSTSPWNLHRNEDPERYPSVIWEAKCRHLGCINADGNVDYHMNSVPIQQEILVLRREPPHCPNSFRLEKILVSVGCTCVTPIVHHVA
In words: IL-17A enzyme-linked immunosorbent assay (competitive ELISA, IL-17A/IL-17R binding). As for the experimental part: The inhibition of receptor-ligand binding by human IL-17A inhibitors was quantified by competitive ELISA. 0.2 μg/mL of IL-17A (Sino Biological Inc. Cat #12047-H07B) was added in a 96-well plate at 100 μl per well for incubation for 30 min under 37° C. The 96-well plate was washed with PBST (PBS, 0.05% Tween-20) at 200 μl per well for 4 times, and then added with 200 μl of 5% skim milk and placed on a shaker for incubation at 25° C. for 30 min. The compound to be tested was prepared at 100× concentration ranging from 0.003 μM to 30 μM. After washed with PBST (PBS, 0.05% Tween-20) 4 times, the plate was added with 89 μl of PBST and 1 μl of the compound to be tested at 100× concentration followed by uniformly mixing and pre-incubation at 25° C. for 10 min. Then the plate was added with 10 μl of 16 nM IL-17R, and incubated on a shaker at 25° C. for 30 min. After washed for 4 times, the plate was added with 100 μl of anti-Fc-tag horseradish peroxidase (HRP)-conjugated antibody, and incubated on a shaker at 25° C. for 30 min. After washed 4 times, the plate was added with 100 μl of 3,3′, 5,5″-tetramethylbenzidine (TMB) substrate solution, and incubated at 25° C. in the dark. Then the plate was added with 20% HCl, followed by detection of the light absorption value at a wavelength of 450 nm by a microplate reader. The compounds prepared in the above examples were tested for human IL-17A inhibitory activity according to the above method.

Another experiment addresses T2, human IL-17A protein (Homo sapiens, UniProt Q16552).
T2 construct: purchased R&D 317-ILB
T2 sequence (Q16552 20-155 limits assumed): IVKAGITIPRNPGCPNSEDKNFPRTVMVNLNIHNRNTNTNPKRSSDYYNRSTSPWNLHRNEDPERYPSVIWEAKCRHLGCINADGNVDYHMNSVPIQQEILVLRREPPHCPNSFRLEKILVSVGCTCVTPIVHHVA
In words: Inhibition of chemokine GROα/CXCL1 generation induced by human IL-17A protein in HT-29 cell. It is filed as cell-based. As for the experimental part:
HT-29 (Zhongyuan Gongchuang Technology Co., Ltd. of Chengdu, Sichuan) was added to a 96-well plate at 5×10^4 cells/well, and cultured overnight in a incubator at 37° C. A mixture of 30 ng/mL of human IL-17A protein (R&D, #317-ILB) and IL-17A small molecule inhibitors with gradient concentrations or 0.3 μg/mL of positive control IL-17A antibody (R&D, #AF-317-NA) was incubated at 37° C. for 1 h, and then added to the above-mentioned 96-well plate, and incubated with HT-29 cells at 37° C. for 48 hours. Then the GROα level in the cell culture supernatant was detected by an ELISA kit (Cisbio, #62HCXC1PEG) of the GROα.
According to the methods described in Experimental Examples 1 and 2, the compounds prepared in the above-mentioned examples were subjected to the experiment on inhibition of chemokine GROα/CXCL1 generation induced by human IL-17A protein in HT-29 cell.

Broadly, the IC50 is the concentration at which inhibition is half-maximal. Low values mean higher potency, high ones lower potency. As to `CC(C)[C@H]1COCCN1c1ccc(NC(=O)[C@@H](NC(=O)c2ccnn2C)C(C2CCC2)C2(C)CC2)cn1` (some centres unmarked) [Compound 12], the IC50 is 40 nM on human IL-17A and 13600 nM against human IL-17A protein. In the same order, the values of `Cc1nonc1C(=O)N[C@H](C(=O)Nc1ccc(-c2c(C)n[nH]c2C)nc1)C(C1CC1)C1CC1` [Compound 41] are 1140 nM and 1470 nM. The matching figures for `CCn1nccc1C(=O)N[C@H](C(=O)Nc1ccc(-c2c(C)n[nH]c2C)nc1)C(C1CC1)C1CC1` [Compound 39]: 128 nM and 514 nM. The matching figures for `Cn1nccc1C(=O)N[C@H](C(=O)Nc1ccc(C2CCOCC2)cn1)C(C1CCC1)C1(C)CC1` (some centres unmarked) [Compound 3]: 67 nM and 1570 nM. Consider `Cn1nccc1C(=O)N[C@H](C(=O)Nc1ccc2c(c1)NC(=O)C21CCOCC1)[C@H](c1ccccc1)C1(C)CC1` [Compound 25], for which the IC50 at human IL-17A stood at 32 nM; on human IL-17A protein, 420 nM. With `CCc1nocc1C(=O)N[C@H](C(=O)Nc1ccc(-c2c(C)n[nH]c2C)nc1)C(C1CC1)C1CC1` [Compound 42], the IC50 on human IL-17A was determined as 170 nM. With `Cn1nccc1C(=O)N[C@H](C(=O)Nc1cnc(C2CCOCC2)c(F)c1)C(C1CCC1)C1(C)CC1` (some centres unmarked) [Compound 4], the IC50 on human IL-17A worked out at 64 nM; against human IL-17A protein, 598 nM. In the same order, the values of `CN1C(=O)C2(CCOCC2)c2ccc(NC(=O)[C@@H](NC(=O)c3ccnn3C)[C@H](c3ccccc3Cl)C3(C)CC3)cc21` [Compound 27] are 104 nM and 1080 nM. The matching figures for `CCn1nccc1C(=O)N[C@H](C(=O)Nc1cnc(-c2c(C)n[nH]c2C)c(F)c1)C(C1CC1)C1CC1` [Compound 52]: 98 nM and 321 nM. For `Cc1n[nH]c(C)c1-c1ccc(NC(=O)[C@@H](NC(=O)c2nonc2C(C)C)C(C2CC2)C2CC2)cn1` [Compound 48], the results for the IC50 at human IL-17A and against human IL-17A protein were 157 nM and 3030 nM, respectively. In turn, `Cc1n[nH]c(C)c1-c1ccc(NC(=O)[C@@H](NC(=O)c2ccnn2C2CC2)C(C2CC2)C2CC2)cn1` [Compound 50] gave an IC50 at human IL-17A of 27900 nM. In other words, the double-digit micromolar range. The same measure, in the same setting: next, `CC(C)[C@@H]1COCCN1c1ccc(NC(=O)[C@@H](NC(=O)c2ccnn2C)C(C2CCC2)C2(C)CC2)cn1` (some centres unmarked) [Compound 13]: 642 nM. On to `Cc1n[nH]c(C)c1-c1ccc(NC(=O)[C@@H](NC(=O)c2ccnn2C)C(C2CCC2)C2(C)CC2)cn1` (some centres unmarked) [Compound 37], for which the IC50 at human IL-17A came to 18 nM; against human IL-17A protein, 257 nM.

Turning to `CCc1nonc1C(=O)N[C@H](C(=O)Nc1ccc(-c2c(C)n[nH]c2C)nc1)C(C1CC1)C1CC1` [Compound 43], the IC50 at human IL-17A came to 457 nM. At human IL-17A, `Cc1n[nH]c(C)c1-c1ccc(NC(=O)[C@@H](NC(=O)c2ncnn2C)C(C2CC2)C2CC2)cn1` [Compound 47] came in with an IC50 of 15500 nM. For the compound `CCN1CCN(c2ccc(NC(=O)[C@@H](NC(=O)c3ccnn3C)C(C3CCC3)C3(C)CC3)cn2)[C@H](C)C1` (some centres unmarked) [Compound 21], the IC50 on human IL-17A came out at 16900 nM. The IC50 values of the last two compounds are within 1.5-fold of each other. On the same count and under the same terms, next, `Cc1n[nH]c(C)c1-c1ccc(NC(=O)[C@@H](NC(=O)c2ccn(C3CC3)n2)C(C2CC2)C2CC2)cn1` [Compound 49]: 537 nM. In the case of `C[C@@H]1CN(c2ccc(NC(=O)[C@@H](NC(=O)c3ccnn3C)C(C3CCC3)C3(C)CC3)cn2)CCO1` (some centres unmarked) [Compound 16], the results for the IC50 on human IL-17A and against human IL-17A protein were 100 nM and 11700 nM, respectively. In the same order, the values of `Cn1nccc1C(=O)N[C@H](C(=O)Nc1ccc(C2CCOCC2)cc1)C(C1CCC1)C1(C)CC1` (some centres unmarked) [Compound 2] are 66 nM and 555 nM. `CC1CN(C)CCN1c1ccc(NC(=O)[C@@H](NC(=O)c2ccnn2C)C(C2CCC2)C2(C)CC2)cn1` (some centres unmarked) [Compound 20]: the IC50 on human IL-17A was found to be 9340 nM. As for `Cc1n[nH]c(C)c1-c1ccc(NC(=O)[C@@H](NC(=O)c2ccnn2C)C(C2CC2)C2CC2)cn1` [Compound 38], the IC50 turned out to be 385 nM on human IL-17A and 4460 nM on human IL-17A protein. The matching figures for `C[C@@H]1COCCN1c1ccc(NC(=O)[C@@H](NC(=O)c2ccnn2C)C(C2CCC2)C2(C)CC2)cn1` (some centres unmarked) [Compound 10]: 41 nM and 7400 nM.

Regarding `Cn1nccc1C(=O)N[C@H](C(=O)Nc1ccc2c(c1)NC(=O)C21CCOCC1)[C@H](c1ccccc1Cl)C1(C)CC1` [Compound 26], the figures for the IC50 at human IL-17A and against human IL-17A protein were 96 nM and 250 nM, respectively. Take `Cn1nccc1C(=O)N[C@H](C(=O)Nc1ccc(N2CCOCC2)nc1)[C@H](c1ccccc1Cl)C1(C)CC1` [Compound 60]: the IC50 on human IL-17A was found to be 327 nM; against human IL-17A protein, 8020 nM. The matching figures for `Cn1nccc1C(=O)N[C@H](C(=O)Nc1ccc(C2CCOCC2)cc1)[C@H](c1ccccc1Cl)C1(C)CC1` [Compound 62]: 56 nM and 373 nM. The matching figures for `CC[C@@H]1COCCN1c1ccc(NC(=O)[C@@H](NC(=O)c2ccnn2C)C(C2CCC2)C2(C)CC2)cn1` (some centres unmarked) [Compound 15]: 49 nM and 2820 nM. The matching figures for `Cn1nccc1C(=O)N[C@H](C(=O)Nc1ccc2c(c1)NC(=O)C21CCOCC1)C(C1CCC1)C1(C)CC1` (some centres unmarked) [Compound 23]: 43 nM and 65 nM. At human IL-17A, `C[C@@H]1CN(c2ccc(NC(=O)[C@@H](NC(=O)c3ccnn3C)C(C3CCC3)C3(C)CC3)cn2)CCN1` (some centres unmarked) [Compound 24] came in with an IC50 of more than 40000 nM. In the case of `Cn1nccc1C(=O)N[C@H](C(=O)Nc1cnc(N2CCOCC2)c(F)c1)C(C1CCC1)C1(C)CC1` (some centres unmarked) [Compound 19], the IC50 at human IL-17A amounted to 73 nM; on human IL-17A protein it was 3160 nM. Take `Cn1nccc1C(=O)N[C@H](C(=O)Nc1ccc(N2CCOC[C@H]2CO)nc1)C(C1CCC1)C1(C)CC1` (some centres unmarked) [Compound 18]: the IC50 at human IL-17A came out at 247 nM. The same measure, in the same setting: next, `Cn1nccc1C(=O)N[C@H](C(=O)Nc1ccc(N2CCOCC2)nc1)C(C1CCC1)C1(C)CC1` (some centres unmarked) [Compound 8]: 236 nM; `Cn1nccc1C(=O)N[C@H](C(=O)Nc1ccc(N2CCOCC2C2CC2)nc1)C(C1CCC1)C1(C)CC1` (some centres unmarked) [Compound 17]: 136 nM.

Turning to `Cc1nocc1C(=O)N[C@H](C(=O)Nc1ccc(-c2c(C)n[nH]c2C)nc1)C(C1CC1)C1CC1` [Compound 46], the IC50 is 111 nM at human IL-17A and 856 nM against human IL-17A protein. In turn, `Cn1nccc1C(=O)N[C@H](C(=O)Nc1ccc(C(C)(C)c2nnc(C3CCC3)o2)cc1)C(C1CCC1)C1(C)CC1` (some centres unmarked) [Compound 36] returned a 50% inhibitory concentration (IC50) on human IL-17A of 1280 nM. For `CC(C)N1CCN(c2ccc(NC(=O)[C@@H](NC(=O)c3ccnn3C)C(C3CCC3)C3(C)CC3)cn2)C(C)C1` (some centres unmarked) [Compound 22], the IC50 at human IL-17A came out at 13700 nM.

Take `Cc1n[nH]c(C)c1-c1ccc(NC(=O)[C@@H](NC(=O)c2ccnn2C)C(C2CC2)C2(C)CC2)cn1` (some centres unmarked) [Compound 53]: the IC50 on human IL-17A turned out to be 55 nM; at human IL-17A protein, 472 nM. In the same order, the values of `Cc1n[nH]c(C)c1-c1ncc(NC(=O)[C@@H](NC(=O)c2ccnn2C(C)C)C(C2CC2)C2(C)CC2)cc1F` (some centres unmarked) [Compound 58] are 42 nM and 221 nM. With `Cc1conc1C(=O)N[C@H](C(=O)Nc1ccc(-c2c(C)n[nH]c2C)nc1)C(C1CC1)C1CC1` [Compound 44], the concentration for half-maximal inhibition (IC50) on human IL-17A was determined as 2780 nM. For `C[C@H]1COCCN1c1ccc(NC(=O)[C@@H](NC(=O)c2ccnn2C)C(C2CCC2)C2(C)CC2)cn1` (some centres unmarked) [Compound 11], the IC50 on human IL-17A came to 56 nM; against human IL-17A protein, 10800 nM. The matching figures for `CC[C@H]1COCCN1c1ccc(NC(=O)[C@@H](NC(=O)c2ccnn2C)C(C2CCC2)C2(C)CC2)cn1` (some centres unmarked) [Compound 14]: 21 nM and 7270 nM. In the same order, the values of `CCn1nccc1C(=O)N[C@H](C(=O)Nc1ccc(-c2c(C)n[nH]c2C)nc1)C(C1CC1)C1(C)CC1` (some centres unmarked) [Compound 54] are 47 nM and 238 nM. For the compound `Cc1n[nH]c(C)c1-c1ccc(NC(=O)[C@@H](NC(=O)c2nocc2C(C)C)C(C2CC2)C2CC2)cn1` [Compound 45], the IC50 at human IL-17A came out at 511 nM.
